Results from patent US20160251403A1, “PEPTIDE COMBINATIONS AND USES THEREOF IN TREATING DUST MITE ALLERGY” (ALK-ABELLO A/S, priority 2013, published 2016).
No end group written: not given here.

Key:
DRB1_0101 = DRB1_0101 (Homo sapiens, UniProt P01903+P01911, A100R/D57E/F55L/F60I/F76Y/I96L/L162R/M171V/P40L/Q125E/R42F/V115G/Y59C); experiment: Competitive MHC class II binding assay, DRB1_0101;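 note: competition against a radiolabeled probe peptide (0.1–1 nM) for purified HLA class II protein over 2–4 days, bound counts read after antibody capture, six competitor levels across 100,000-fold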
DRB1_0901 = DRB1_0901 (Homo sapiens, UniProt P01903+P01911, A100R/A103E/D57H/D86V/F55Y/F60I/F76Y/I96F/K127E/L162R/M171V/P40D/Q125H/Q99R/R33Q/R42F/S133A/S66N/T210M/V115G/W38K/Y107V/Y59G/Y89S); experiment: Competitive MHC class II binding assay, DRB1_0901;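 note: displacement of a radiolabeled probe peptide from purified HLA class II protein, bound counts read after two to four days incubation, six concentrations spanning 100,000-fold, unlabeled probe as reference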
DRB1_1302 = DRB1_1302 (Homo sapiens, UniProt P01903+P01911, A100E/A169T/K41T/L162R/M171V/P40S/Q125H/Q178H/Q39Y/Q99D/R42S/S66N/T262R/V115G/W38E/Y61H); experiment: Competitive MHC class II binding assay, DRB1_1302;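 note: purified HLA class II protein incubated two to four days with a radiolabeled reference binder and test peptide at six concentrations over a 100,000-fold range, complex-bound radioactivity counted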
DRB3_0101 = DRB3_0101 (Homo sapiens, UniProt P01903+P79483); experiment: Competitive MHC class II binding assay, DRB3_0101
DRB1_0701 = DRB1_0701 (Homo sapiens, UniProt P01903+P01911, A100R/A102G/A103Q/D57E/D86V/E43K/F76Y/K127E/L162R/M171V/P40G/Q125H/Q99D/R33Q/R42Y/R54Q/S133A/S66F/T210M/V115G/Y107V/Y59L/Y89S); experiment: Competitive MHC class II binding assay, DRB1_0701;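 note: displacement of a radiolabeled reference peptide from purified HLA class II protein, with complex-bound radioactivity counted after 2–4 days of incubation and six concentrations spanning a 100,000-fold range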
DRB1_1501 = DRB1_1501 (Homo sapiens, UniProt P01903+P01911); experiment: Competitive MHC class II binding assay, DRB1_1501
DRB3_0202 = DRB3_0202 (Homo sapiens, UniProt P01903+P79483, A212P/D57E/F66Y/L67A/R103Q/R218S/R40L/S89Y/T80R/V86D/Y55F/Y59H); experiment: Competitive MHC class II binding assay, DRB3_0202
DPA10103-DPB10402 = target: T1, DPA10103-DPB10402 (Homo sapiens, UniProt P04440+P20036, A65V/A84D/A85E/L207M); experiment: Competitive MHC class II binding assay, DPA10103-DPB10402
T1 sequence (P20036 29-260): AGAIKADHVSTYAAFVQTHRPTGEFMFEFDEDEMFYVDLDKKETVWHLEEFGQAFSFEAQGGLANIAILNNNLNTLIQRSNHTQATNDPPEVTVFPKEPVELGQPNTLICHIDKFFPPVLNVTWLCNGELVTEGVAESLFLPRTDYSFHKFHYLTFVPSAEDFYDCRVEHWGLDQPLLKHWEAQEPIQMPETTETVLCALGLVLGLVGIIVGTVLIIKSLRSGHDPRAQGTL
T1 sequence (P04440 30-258 A65V/A84D/A85E): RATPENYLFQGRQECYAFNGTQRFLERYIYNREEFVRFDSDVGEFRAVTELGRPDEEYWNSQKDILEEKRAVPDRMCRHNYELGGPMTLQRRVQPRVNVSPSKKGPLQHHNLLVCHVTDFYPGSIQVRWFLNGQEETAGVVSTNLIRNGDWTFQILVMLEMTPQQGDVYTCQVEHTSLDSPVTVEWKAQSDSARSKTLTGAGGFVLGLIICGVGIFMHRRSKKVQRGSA

DQA10301-DQB10302 = DQA10301-DQB10302 (Homo sapiens, UniProt P01909+P01920, A209T/A45G/C70Q/D89A/DUP78-78/E183D/E77G/F237L/G63E/H199R/I129T/K197E/L178F/L74F/L98V/Q57E/Q76R/S185I/S97I/T217I/T49S/V73L/Y58L); experiment: Competitive MHC class II binding assay, DQA10301-DQB10302
[1] = Solubility of peptides in aqueous solutions at different pH (visual inspection, OD, HPLC); format: physicochemical
Method in brief: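 Peptides at about 0.25 mM or 1 mM final in water, pH 2 HCl, or pH 5, 7 or 9 buffers with 140 mM NaCl, optionally with about 20% DMSO. Turbidity and particles checked visually before and after centrifugation and by OD. RP-HPLC peak height or area was compared with peptide dissolved in acetonitrile or DMSO.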

| Compound | IC50 (DRB1_0101) [µM] | IC50 (DRB1_0901) [µM] | IC50 (DRB1_1302) [µM] | IC50 (DRB3_0101) [µM] | IC50 (DRB1_0701) [µM] | IC50 (DRB1_1501) [µM] | IC50 (DRB3_0202) [µM] | IC50 (DPA10103-DPB10402) [µM] | IC50 (DQA10301-DQB10302) [µM] | Solubility at pH 7 (visual inspection) [1] | Solubility at pH 7 ([1]; Table 11a, evaluated by visual inspection) | binding to HLA Class II allele DRB1_1302 (DRB1_1302; as shown in Table 16a) | binding to HLA Class II allele DRB3_0101 (DRB3_0101; as shown in Table 16a) | binding to HLA Class II allele DRB3_0202 (DRB3_0202; as shown in Table 16a) |
| --- | --- | --- | --- | --- | --- | --- | --- | --- | --- | --- | --- | --- | --- | --- |
| DNGYGYFAANIDLMMIEE [pep-010] | < 1 | < 1 | < 1 | < 1 | < 1 | < 1 | < 1 | < 1 | < 1 | – | – | binds to at least the same alleles as peptide 041 | binds to at least the same alleles as peptide 041 | binds to at least the same alleles as peptide 041 |
| HAVNIVGYSNAQGVDYWIVR [pep-058] | – | < 1 | < 1 | < 1 | < 1 | < 1 | – | – | – | Slight turbid | – | – | – | – |
| GSGSSWAFSGVAATESAYLA [pep-044] | < 1 | < 1 | < 1 | – | < 1 | < 1 | < 1 | < 1 | < 1 | – | – | – | – | – |

Continued, in another order:

| IC50 (DRB1_0101) [µM] | IC50 (DRB1_0901) [µM] | IC50 (DRB1_1302) [µM] | IC50 (DRB3_0101) [µM] | IC50 (DRB1_0701) [µM] | IC50 (DRB1_1501) [µM] | IC50 (DRB3_0202) [µM] | IC50 (DPA10103-DPB10402) [µM] | IC50 (DQA10301-DQB10302) [µM] | Solubility at pH 7 (visual inspection) [1] | Solubility at pH 7 ([1]; Table 11a, evaluated by visual inspection) | Compound | binding to HLA Class II allele DRB1_1302 (DRB1_1302; as shown in Table 16a) | binding to HLA Class II allele DRB3_0101 (DRB3_0101; as shown in Table 16a) | binding to HLA Class II allele DRB3_0202 (DRB3_0202; as shown in Table 16a) |
| --- | --- | --- | --- | --- | --- | --- | --- | --- | --- | --- | --- | --- | --- | --- |
| < 1 | < 1 | < 1 | < 1 | – | – | – | – | – | – | – | LVGDNGVLASAIATHAKIRD [pep-110] | – | – | – |
| < 1 | < 1 | < 1 | – | < 1 | – | – | < 1 | < 1 | Slight turbid | – | CC[C@H](C)[C@H](NC(=O)CNC(=O)[C@@H](NC(=O)[C@@H](NC(=O)[C@@H](NC(=O)[C@H](C)NC(=O)[C@@H](NC(=O)[C@H](C)NC(=O)[C@H](CO)NC(=O)[C@H](Cc1c[nH]cn1)NC(=O)[C@@H](NC(=O)[C@H](CCC(N)=O)NC(=O)[C@H](C)NC(=O)[C@H](CC(C)C)NC(=O)[C@H](C)NC(=O)[C@H](CCC(=O)O)NC(=O)[C@@H](N)CCCNC(=N)N)[C@@H](C)O)[C@@H](C)CC)C(C)C)[C@@H](C)CC)[C@@H](C)CC)C(=O)N[C@@H](CCCCN)C(=O)N[C@@H](CC(=O)O)C(=O)N[C@@H](CC(C)C)C(=O)N[C@@H](CC(=O)O)C(=O)N[C@@H](C)C(=O)O [pep-130] | – | – | – |
| < 1 | < 1 | < 1 | – | < 1 | – | < 1 | – | – | – | Clear | LVKGQQYDIKYTWNVPKIAPK [pep-131] | – | – | – |
